# Source: patent US6750194B1, “Methods of identifying compounds for regulating muscle mass or function using vasoactive intestinal peptide receptors” (The Procter & Gamble Company, priority 2000, dated 2004)
# Ends that are not written are not given here.
# How the values were obtained:
# skeletal muscle atrophy = assay: Animal models of skeletal muscle atrophy, summary of FIGS. 1-5; assay type: in vivo; conditions: theophylline alone
# [1] = test system: glucocorticoid-induced atrophied tibialis anterior and medial gastrocnemius muscles; assay: Mouse glucocorticoid (dexamethasone)-induced atrophy model (FIG. 3); assay type: in vivo; conditions: male mice, dexamethasone 1.2 mg/kg/d in drinking water; 0.1 and 0.3 mg/kg s.c. 2x daily + theophylline 30 mg/kg i.p., nine days
# Method: Legend for the X-axis: 1: Saline+Dexamethasone (1.2 mg/kg/day included in the drinking water), 2: PACAP-38 (0.1 mg/kg)+Dexamethasone+T, 3: PACAP-38 (0.3 mg/kg)+Dexamethasone+T, 4: VPAC1R agonist (0.1 mg/kg)+Dexamethasone+T, 5: VPAC1R agonist (0.3 mg/kg)+Dexamethasone+T, 6: VPAC2R agonist (0.1 mg/kg)+Dexamethasone+T, 7: VPAC2R agonist (0.3 mg/kg)+Dexamethasone+T.
# (VPAC1R agonist), the VPAC2 receptor selective agonist, Ro 25-1553 (VPAC2R agonist), or the VPAC1/VPAC2 receptor nonselective agonist, PACAP-38. Following the addition of the glucocorticoid, dexamethasone to the drinking water (1.2 mg/kg/d), male mice were injected subcutaneously in the midscapular region twice daily, with either the above indicated agents at the doses indicated in FIGS. 3A and 3B or vehicle control (physiological saline) for nine days. These agonists were co-administered with twice daily intra-peritoneal dosing of the phosphodiesterase inhibitor theophylline (T—30 mg/kg). Nine days following the initiation of dosing of the VPAC receptor agonists and dexamethasone, the medial gastrocnemius and tibialis anterior muscles were removed and weighed to determine the degree of atrophy. […] Statistical significance of the results were determined using ANCOVA.
# The glucocorticoid induced atrophy model involves the administration of a glucocorticoid to the test animal, e.g. 1.2 mg/kg/day of dexamethasone in the drinking water. Typically, in untreated animals, skeletal muscle mass is reduced 30-50% following ten days of dexamethasone administration. Concomitantly with, or following glucocorticoid administration, test compounds are administered e.g., by injection or by continuous infusion to determine their effect on glucocorticoid induced skeletal muscle atrophy. At various times following glucocorticoid administration, the extent of atrophy in the affected muscles is analyzed as described above for the denervation model.
# [2] = test system: denervated tibialis anterior and medial gastrocnemius muscles; assay: Mouse denervation atrophy model, agonists subcutaneously 2x daily with theophylline (FIG. 1); assay type: in vivo; conditions: male mice, right sciatic nerve denervation; 0.1 and 0.3 mg/kg s.c. 2x daily + theophylline 30 mg/kg i.p. 2x daily, nine days; versus saline
# Method: Legend for the X-axis: A: Saline, B: VPAC1R agonist (0.1 mg/kg)+T, C: VPAC1R agonist (0.3 mg/kg)+T, D: VPAC2R agonist (0.1 mg/kg)+T, E: VPAC2R agonist (0.3 mg/kg)+T, F: PACAP-38 (0.1 mg/kg)+T, G: PACAP-38 (0.3 mg/kg)+T.
# (VPAC1R agonist), the VPAC2 receptor selective agonist, Ro 25-1553 (VPAC2R agonist), or the VPAC1/VPAC2 receptor nonselective agonist, PACAP-38. Following denervation of the right sciatic nerve, male mice were injected subcutaneously in the midscapular region twice daily, with either the above indicated agents at the doses indicated in FIGS. 1A and 1B or vehicle control (physiological saline) for nine days. These agonists were co-administered with twice daily intra-peritoneal dosing of the phosphodiesterase inhibitor theophylline (T-30 mg/kg) (included to increase the magnitude and the duration of action of cAMP signals induced by the VPAC receptor agonists). On day nine, the medial gastrocnemius and tibialis anterior muscles were removed and weighed to determine the degree of atrophy. […] Statistical significance of the results were determined using ANCOVA (Douglas C. Montgomery, Design and Analysis of Experiments, John Wiley and Sons, New York (2nd ed. 1984)).
# The sciatic nerve denervation atrophy model involves anesthetizing the animal followed by the surgical removal of a short segment of either the right or left sciatic nerve, e.g. in mice the sciatic nerve is isolated approximately at the midpoint along the femur and a 3-5 mm segment is removed. This denervates the lower hind limb musculature resulting in atrophy of these muscles. Typically, innervation to the biceps femoris is left intact to provide satisfactory motion of the knee for virtually normal ambulation. Typically, in untreated animals, muscle mass of the denervated muscles is reduced 30-50% ten days following denervation. Following denervation, test compounds are administered e.g., by injection or by continuous infusion, e.g. via implantation of an osmotic minipump (e.g. Alza, Palo Alto, Calif.), to determine their effect on denervation induced skeletal muscle atrophy. At various times following denervation, the animals are euthanized and lower leg muscles are dissected rapidly from both the denervated and nondenervated legs, the muscles, cleaned of tendons and connective tissue, are weighed. The extent of atrophy in the affected muscles is analyzed, for example, by measuring muscle mass, muscle cross-sectional area, myofiber cross-sectional area or contractile protein content.
# [3] = test system: denervated tibialis anterior and extensor digitorum longus (EDL) muscles; assay: Rat denervation atrophy model (FIG. 5); assay type: in vivo; conditions: male rats, right sciatic nerve denervation; 0.03, 0.1, 0.3 mg/kg s.c. 2x daily + theophylline 30 mg/kg i.p., nine days
# Method: (§1) Legend for the X-axis: A: Saline, B: VPAC2R agonist (0.03 mg/kg)+T, C: VPAC2R agonist (0.1 mg/kg)+T, D: VPAC2R agonist (0.3 mg/kg)+T.
# Following denervation of the right sciatic nerve, male rats were injected subcutaneously in the midscapular region twice daily, with either the VPAC2R receptor agonist at the doses indicated in FIGS. 5A and 5B or vehicle control (physiological saline) for nine days. The VPAC2R receptor agonist was co-administered with twice daily intra-peritoneal dosing of the phosphodiesterase inhibitor theophylline (T—30 mg/kg). On day nine, the tibialis anterior and extensor digitorum longus (EDL) muscles were removed and weighed to determine the degree of atrophy. […] Statistical significance of the results were determined using ANCOVA.
# (§2) The sciatic nerve denervation atrophy model involves anesthetizing the animal followed by the surgical removal of a short segment of either the right or left sciatic nerve, e.g. in mice the sciatic nerve is isolated approximately at the midpoint along the femur and a 3-5 mm segment is removed. This denervates the lower hind limb musculature resulting in atrophy of these muscles. […] The extent of atrophy in the affected muscles is analyzed, for example, by measuring muscle mass, muscle cross-sectional area, myofiber cross-sectional area or contractile protein content.
# [4] = test system: denervated and non-denervated (control) tibialis anterior and medial gastrocnemius muscles; assay: Mouse denervation atrophy model, continuous infusion by osmotic minipump (FIG. 2); assay type: in vivo; conditions: male mice, continuous infusion by osmotic minipump 0.3, 1, 3 mg/kg daily, no theophylline, day nine
# Method: Legend for the X-axis: A: water infused, B: VPAC1R agonist (0.3 mg/kg), C: VPAC1R agonist (1 mg/kg), D: VPAC1R agonist (3 mg/kg), E: VPAC2R agonist (0.3 mg/kg), F: VPAC2R agonist (1 mg/kg), G: VPAC2R agonist (3 mg/kg), H: PACAP-38 (0.3 mg/kg), I: PACAP-38 (1 mg/kg), PACAP-38 (3 mg/kg).
# (VPAC1R agonist), the VPAC2 receptor selective agonist, Ro 25-1553 (VPAC2R agonist), or the VPAC1/VPAC2 receptor nonselective agonist, PACAP-38. Following denervation of the right sciatic nerve, male mice were dosed with the above indicated agents or vehicle control (physiological saline) by continuous infusion using an ALZeT osmotic minipump at 5 μl/hr until the end of the experimental period. The daily delivered dose of the agents are as indicated on FIGS. 2A and 2B. Minipump implantation was performed at the same time as the sciatic nerve denervation. On day nine the medial gastrocnemius and tibialis anterior muscles were removed and weighed to determine the degree of atrophy. […] Statistical significance of the results were determined using ANCOVA.
# as §2, with “muscles. Typically, innervation to the biceps femoris is left intact to provide satisfactory motion of the knee for virtually normal ambulation. Typically, in untreated animals, muscle mass of the denervated muscles is reduced 30-50% ten days following denervation.” for “muscles.”
# [5] = test system: atrophy of the skeletal muscle of the entire body due to disuse; assay: Prophylactic treatment of skeletal muscle atrophy in a comatose subject (Example 11); assay type: in vivo; conditions: human 50 kg, 3 ml of 500 mg/ml with D,L lactic and glycolic acid copolymer i.m. once each month
# Method: A human subject weighing 50 kg is admitted to the hospital in a comatose state. The subject is treated to prevent atrophy of the skeletal muscle of the entire body due to disuse while in the comatose state. Specifically, once each month while in the coma, the subject is administered, via intramuscular injection, 3 ml of an aqueous solution of pH 6.0 comprising the following: […]
# VPAC2 receptor = target: T1, VPAC2 receptor (Homo sapiens, UniProt P41587); conditions: relative to PACAP38; cited from earlier work
# T1 sequence (P41587 24-438): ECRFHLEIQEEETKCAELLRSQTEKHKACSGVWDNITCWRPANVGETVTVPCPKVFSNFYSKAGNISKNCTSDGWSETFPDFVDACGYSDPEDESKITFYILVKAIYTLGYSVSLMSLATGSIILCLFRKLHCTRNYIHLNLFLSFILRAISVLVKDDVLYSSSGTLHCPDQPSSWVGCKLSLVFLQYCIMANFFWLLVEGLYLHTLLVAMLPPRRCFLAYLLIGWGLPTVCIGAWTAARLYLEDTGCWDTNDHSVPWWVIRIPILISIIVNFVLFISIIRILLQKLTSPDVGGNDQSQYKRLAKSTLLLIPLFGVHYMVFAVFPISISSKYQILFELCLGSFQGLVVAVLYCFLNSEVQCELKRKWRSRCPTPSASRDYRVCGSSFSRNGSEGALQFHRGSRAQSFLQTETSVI
# [6] = test system: casting-induced atrophied tibialis anterior muscle and normal medial gastrocnemius muscle; assay: Mouse disuse (casting) atrophy model (FIG. 4); assay type: in vivo; conditions: male mice, right hind leg cast; 0.03, 0.1, 0.3 mg/kg s.c. 2x daily + theophylline 30 mg/kg i.p., nine days
# Method: as §1
# Following casting of the right hind leg, male mice were injected subcutaneously in the midscapular region twice daily, with either the above indicated agent at the doses indicated in FIGS. 4A and 4B or vehicle control (physiological saline) for nine days. The VPAC2R agonist was co-administered with twice daily intra-peritoneal dosing of the phosphodiesterase inhibitor theophylline (T—30 mg/kg). On day nine, the medial gastrocnemius and tibialis anterior muscles were removed and weighed to determine the degree of atrophy. […] Statistical significance of the results were determined using ANCOVA.
# The leg casting disuse atrophy model involves casting one hind leg of an animal from the knee down through the foot. Typically, muscle mass is reduced 20-40% after ten days of casting. Following casting, test compounds are administered by injection or by continuous infusion via implantation of an osmotic minipump (e.g. Alza, Palo Alto, Calif.) to determine their effect on leg casting induced skeletal muscle atrophy. At various times following leg casting, the extent of atrophy in the affected muscles is analyzed as described above for the denervation model.
# VPAC1 receptor = target: T2, VPAC1 receptor (Homo sapiens, UniProt P32241); conditions: relative to PACAP38; cited from earlier work
# T2 sequence (P32241 31-457): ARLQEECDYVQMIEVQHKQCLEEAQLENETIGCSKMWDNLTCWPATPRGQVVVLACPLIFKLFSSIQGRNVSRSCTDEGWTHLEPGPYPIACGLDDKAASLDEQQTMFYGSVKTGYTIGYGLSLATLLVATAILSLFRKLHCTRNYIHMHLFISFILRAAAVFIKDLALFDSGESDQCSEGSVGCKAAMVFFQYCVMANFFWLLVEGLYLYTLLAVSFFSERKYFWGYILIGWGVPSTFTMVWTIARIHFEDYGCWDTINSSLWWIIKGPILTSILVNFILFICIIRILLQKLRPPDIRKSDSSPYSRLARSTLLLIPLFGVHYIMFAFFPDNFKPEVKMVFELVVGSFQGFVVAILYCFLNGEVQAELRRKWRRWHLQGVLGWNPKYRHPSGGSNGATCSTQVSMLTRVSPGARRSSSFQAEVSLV
compound,measurement,setting,value
"Cn1c(=O)c2[nH]cnc2n(C)c1=O [Theophylline, theophylline]",effect of theophylline administered by itself in the atrophy models,skeletal muscle atrophy,no effect
"PACAP-38 (HSDGIFTDSYSRYRKQMAVKKYLAAVLGKRYKQRVKNK; ends and bridges not checked; UniProt P18509 132-169, looked up)",muscle atrophy of the medial gastrocnemius induced by glucocorticoid administration (FIG. 3B),[1],inhibits muscle atrophy
same,"atrophy of the denervated medial gastrocnemius muscle (muscle weight, FIG. 1B)",[2],inhibited atrophy
same,"atrophy of the denervated tibialis anterior muscle (muscle weight, FIG. 1A)",[2],inhibited atrophy
Ro 25-1553,muscle atrophy of the medial gastrocnemius induced by glucocorticoid administration (FIG. 3B),[1],inhibited muscle atrophy
same,muscle atrophy of the tibialis anterior induced by glucocorticoid administration (FIG. 3A),[1],inhibited muscle atrophy
same,atrophy of the denervated EDL muscle (FIG. 5B),[3],inhibited atrophy
same,atrophy of the denervated tibialis anterior muscle (FIG. 5A),[3],inhibited atrophy
same,"atrophy of the denervated medial gastrocnemius muscle (muscle weight, FIG. 1B)",[2],inhibited atrophy
same,"atrophy of the denervated tibialis anterior muscle (muscle weight, FIG. 1A)",[2],inhibited atrophy
same,"atrophy of the denervated tibialis anterior muscle (muscle weight, FIG. 2A)",[4]; sciatic denervation,inhibited atrophy
same,hypertrophy of the non-denervated (control) medial gastrocnemius muscle (FIG. 2B),[4],induced hypertrophy
same,hypertrophy of the non-denervated (control) tibialis anterior muscle (FIG. 2A),[4],induced hypertrophy
same,skeletal muscle mass and physical therapy needs,[5],measurable preservation of skeletal muscle mass and reduced physical therapy needs
same,potency as VPAC2 receptor selective agonist,VPAC2 receptor,potency similar to PACAP38
same,disuse-induced atrophy of the tibialis anterior muscle (FIG. 4A),[6],inhibited disuse-induced atrophy
same,"hypertrophy of the medial gastrocnemius muscle (normal, FIG. 4B)",[6],induced hypertrophy
"[K^15, R^16, L^27VIP(1-7), GRF(8-27)-NH2]",muscle atrophy of the tibialis anterior induced by glucocorticoid administration (FIG. 3A),[1],inhibited muscle atrophy
same,"atrophy of the denervated medial gastrocnemius muscle (muscle weight, FIG. 1B)",[2],inhibited atrophy
same,potency as VPAC1 receptor selective agonist,VPAC1 receptor,potency similar to PACAP38
